PubChem BioAssay (NCI)
Several values for one entry are separate records, joined by “and”; a condition that tells them apart may be missing. Identical values can stand only once.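 Each compound was tested at five concentrations against cells in 96-well plates for 48 hours. GI50: concentration for 50% inhibition of growth. TGI is the concentration that stops growth completely.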

Key:
Assay in all cases: inhibition of tumour cell growth, NCI panel, 48 h
IGROV1 ovarian = system: IGROV1 ovarian
NCI-H226 lung = system: NCI-H226 lung
NCI/ADR-RES ovarian = system: NCI/ADR-RES ovarian
PC-3 prostate = system: PC-3 prostate
RPMI-8226 leukemia = system: RPMI-8226 leukemia
RXF 393 renal = system: RXF 393 renal
SF-295 CNS = system: SF-295 CNS
SW-620 colon = system: SW-620 colon
DLD-1 colon = system: DLD-1 colon
DMS 114 small cell lung = system: DMS 114 small cell lung

SMILES	GI50 (IGROV1 ovarian)	TGI (IGROV1 ovarian)	GI50 (NCI-H226 lung)	TGI (NCI-H226 lung)	GI50 (NCI/ADR-RES ovarian)	TGI (NCI/ADR-RES ovarian) [µM]	GI50 (PC-3 prostate)	TGI (PC-3 prostate)	GI50 (RPMI-8226 leukemia)	TGI (RPMI-8226 leukemia) [µM]	GI50 (RXF 393 renal)	TGI (RXF 393 renal)	GI50 (SF-295 CNS)	TGI (SF-295 CNS)	GI50 (SW-620 colon)	TGI (SW-620 colon)	TGI (DLD-1 colon) [µM]	TGI (DMS 114 small cell lung) [µM]	GI50 (DLD-1 colon) [µM]	GI50 (DMS 114 small cell lung)
Nc1ncnc2occ(-c3ccc(NC(=O)Nc4cccc(C(F)(F)F)c4)cc3)c12	2.02 µM	10.2 µM	0.367 µM	6.1 µM	4.51 µM	16.2	4.94 µM	13.3 µM	4.86 µM	15.3	1.71 µM	5.39 µM	3.76 µM	15.7 µM	6.77 µM	20.2 µM	–	–	–	–
O=C(Nc1cccc2[nH]c(C(F)(F)F)nc12)c1ccc(Br)cc1F	6.75 µM	32.4 µM	2.97 µM	12.8 µM	3.35 µM	12.2	2.75 µM	10.4 µM	2.44 µM	7.9	3.1 µM	9.12 µM	2.94 µM	10.3 µM	3.38 µM	13.2 µM	–	–	–	–
CN1C=C(C(N)=O)Cc2ccsc21	–	> 100 µM	–	> 100 µM	–	–	–	–	–	> 100	–	> 100 µM	–	> 100 µM	–	> 100 µM	> 100	> 100	–	–
CC[C@@]1(O)C(=O)OCc2c1cc1n(c2=O)Cc2cc3c(N)c(OC)ccc3nc2-1	0.223 µM	2.45 µM	1.77 µM	> 100 µM	–	–	–	–	0.135 µM	2.32	0.0708 µM	0.426 µM	0.0267 µM	0.41 µM	0.137 µM	2.87 µM	> 100	0.189	1	0.0252 µM
N/N=C1\C(=O)N(c2ccc(Cl)c(Cl)c2)C(=O)C1C(=O)Nc1ccc(Cl)c(Cl)c1 (configuration not stated)	–	> 100 µM	–	–	–	–	–	–	–	> 100	–	> 100 µM	–	> 100 µM	–	> 100 µM	> 100	> 100	–	–
Cc1nc2ccccc2c(/C=C/c2ccc(F)cc2)c1C(=O)/C=C/c1ccccc1	1.71 µM	6.15 µM	1.85 µM	4.16 µM	2.61 µM	7.48	2.53 µM	8.81 µM	1.87 µM	5.95	1.74 µM	3.26 µM	4.72 µM	> 100 µM	2.9 µM	> 100 µM	–	–	–	–
CCCCCCCCCCCCNC(=S)OCCCC	–	> 100 µM	–	–	–	–	–	–	–	51	–	> 100 µM	–	> 100 µM	–	> 100 µM	> 100	> 100	–	–
O=C1CC2=CCCC2O1 (configuration not stated)	–	> 100 µM	–	–	–	–	–	–	–	> 100	–	> 100 µM	–	> 100 µM	–	> 100 µM	> 100	> 100	–	–
COc1cc(Br)c(C=Nc2cccc3ccc(OS(=O)(=O)c4ccc([N+](=O)[O-])cc4)cc23)cc1OC	–	> 100 µM	–	> 100 µM	–	–	–	–	–	> 100	–	> 100 µM	–	> 100 µM	–	> 100 µM	> 100	> 100	–	–
COc1ccc(-c2cc(-c3ccco3)c(C#N)c(=O)n2C2OC(COC(C)=O)C(OC(C)=O)C(OC(C)=O)C2OC(C)=O)cc1 (configuration not stated)	> 100 µM and 12.9 µM	> 100 µM and 94.4 µM	–	–	–	–	–	–	–	> 100	> 100 µM and 21.8 µM	> 100 µM and 66.2 µM	> 100 µM and 25.7 µM	> 100 µM	–	> 100 µM	> 100	> 100	–	> 100 µM and 21.6 µM
O=C1c2c[n+](Cc3ccccc3)ccc2-c2nc3ccccc3c3ccnc1c23	0.827 µM	4.04 µM	0.537 µM	3.07 µM	7.3 µM	33.3	0.826 µM	3.92 µM	1.06 µM	6.76	0.534 µM	1.56 µM	0.585 µM	5.71 µM	0.45 µM	3.71 µM	–	–	–	–
CC1(C)CCOC(Sc2ccccc2)C1 (configuration not stated)	–	> 100 µM	–	–	–	–	–	–	–	91.3	–	> 100 µM	–	> 100 µM	–	> 100 µM	> 100	> 100	–	–
COc1cc(/C=C2\CC3C4CC=C5C[C@@H](N6CCCC6)CC[C@]5(C)C4CC[C@]3(C)[C@H]2OC(C)=O)ccc1OCCCn1ccnc1 (some centres not stated)	8.12 µM	> 50 µM	10.3 µM	21.9 µM	5.35 µM	13.5	0.958 µM	8.41 µM	0.343 µM	> 14	0.704 µM	2.08 µM	1.21 µM	3.46 µM	0.232 µM	1.21 µM	–	–	–	–
O=C(Nc1ccc(Br)cc1)c1cc(Br)ccc1O	0.346 µM and 0.749 µM	22.8 µM and 17 µM	0.747 µM and 0.729 µM	4.52 µM and 4.03 µM	0.523 µM and 1.16 µM	8.28	0.973 µM and 2.69 µM	12.7 µM and > 29 µM	0.483 µM and 0.244 µM	0.758	0.612 µM	3.89 µM	0.712 µM and 1.39 µM	2.3 µM and 4.08 µM	0.986 µM and 2 µM	8.61 µM and 6.87 µM	–	–	–	–
C=CC(=O)N1CCN(c2nc(OC[C@@H]3CCCN3C)nc3c(F)c(-c4nc(N)cc(C)c4C(F)(F)F)c(Cl)cc23)[C@@H](C)C1	1.7 µM	3.54 µM	1.88 µM	4.52 µM	12.8 µM	27.8	2.91 µM	12 µM	2.49 µM	7.06	1.07 µM	2.5 µM	4.74 µM	16.9 µM	1.95 µM	3.71 µM	–	–	–	–
COC(=O)N1C=CC2=C(C)C3Nc4ccccc4C3C(C)=C2C1 (configuration not stated)	–	> 100 µM	–	5.1 µM	–	–	–	–	–	5.87	–	–	–	17.9 µM	–	21.9 µM	19.8	> 100	–	–
CC(=O)OC1C(C)OC(Oc2c(-c3ccc(O)cc3)oc3cc(O)cc(O)c3c2=O)C(O)C1OC(C)=O (configuration not stated)	31.7 µM	> 79.8 µM	36.9 µM	> 100 µM	> 100 µM	> 100	30.5 µM	> 100 µM	23.4 µM	70.4	24.2 µM	71.8 µM	29.9 µM	> 100 µM	35.8 µM	> 100 µM	–	–	–	–
COc1cccc(C2=C(c3cn(C)c4c(C)cccc34)C(=O)NC2=O)c1	> 25 µM	> 25 µM	19.4 µM	> 25 µM	> 21.4 µM	> 25	> 18.3 µM	> 25 µM	> 25 µM	> 25	8.58 µM	> 25 µM	17.4 µM	> 25 µM	> 25 µM	> 25 µM	–	–	–	–
